Results published in patent US20070077283A1, “METHOD OF ENHANCING TRANSMUCOSAL DELIVERY OF THERAPEUTIC COMPOUNDS” (Nastech Pharmaceutical Company Inc., priority 2005, published 2007).

Legend:
[1] = test system: human-derived tracheal/bronchial epithelial cells (EpiAirway Tissue Model); assay: Cell viability (MTT assay); assay type: cell-based; settings: compared with PBS negative control (Example 5)
Protocol: Cell viability will be assessed using the MTT assay (MTT-100, MatTek kit). This kit measures the uptake and transformation of tetrazolium salt to formazan dye. Thawed and diluted MTT concentrate is prepared 1 hour prior to the end of the dosing period with the lipid by mixing 2 mL of MTT concentrate with 8 mL of MTT diluent. Each cell culture insert is washed twice with PBS containing Ca^+2 and Mg^+2 and then transferred to a new 96-well transport plate containing 100 μL of the mixed MTT solution per well. This 96-well transport plate is then incubated for three hours at 37° C. and 5% CO2. After the three hour incubation, the MTT solution is removed and the cultures are transferred to a second 96-well feeder tray containing 250 μL MTT extractant solution per well. An additional 150 μL of MTT extractan solution was added to the surface of each culture well and the samples sat at room temperature in the dark for a minimum of two hours and maximum of 24 hours. The insert membrane was then pierced with a pipet tip and the solutions in the upper and lower wells were allowed to mix. Two hundred microliters of the mixed extracted solution along with extracted blanks (negative control) was transferred to a 96-well plate for measurement with a microplate reader. The optical density (OD) of the samples was measured at 570 nm with the background subtraction at 650 nm on a plate reader. Cell viability was expressed as a percentage and calculated by dividing the OD readings for treated inserts by the OD readings for the PBS treated inserts and multiplying by 100. For the purposes of this assay, it was assumed that PBS had no effect on cell viability and therefore represented 100% cell viability.

[2] = test system: human-derived tracheal/bronchial epithelial cells (EpiAirway Tissue Model); assay: FITC-Dextran permeation assay across epithelial cell monolayer; assay type: cell-based; settings: for Mean % FD3 Permeation: FITC-dextran 3000 (Table 4)
Protocol: Each tissue insert was placed in an individual well containing 1 ml of MatTek basal media. On the apical surface of the inserts, 20 μl of test formulation was applied according to study design, and the samples were placed on a shaker (˜100 rpm) for 1.5 hours at 37° C. FITC-labeled dextran solution was added to inserts apically and a fluorescence measurement was taken from the basolateral media after the incubation period. Two hundred microliters of the basal media for each test formulation was transferred to a dark-wall fluorescent reading plate. Each test formulation was tested in triplicate. Fluorescent intensity was measured at 470 nM with the microplate fluorescence reader FLx800 (Bio-Tek Instruments, Inc., Winooski, Vt.). A FITC labeled dextran with a molecular weight of 3 kDA, 10 kDA, 20 kDA, 40 kDA, 70 kDA and/or 500 kDA was used to assess the ability of individual lipids to deliver a model protein across an epithelia.
Permeation is expressed as percent permeation and was calculated as follows: [formula] [formula] Terms
PBS and 0.3% Triton-X100™ served as […]. […] FD permeation was presented as the percent of FD that crossed from the apical side of the epithelial cell monolayer to the basolateral cell surface.

[3] = test system: human-derived tracheal/bronchial epithelial cells (EpiAirway Tissue Model); assay: in vitro
Protocol: Normal, human-derived tracheal/bronchial epithelial cells will serve as the model cell system for assessing the lipids listed in Table 1. The cells are supplied by MatTek Corp. (Ashland, Mass.) as the EpiAirway™ Tissue Model. The cells are provided as a confluent monolayer on a Millipore Milicell-CM cell culture insert with a pore size of 0.4 μM, inner diameter of 0.8 cm and surface area of 0.6 cm^2 and comprised of transparent hydrophilic Teflon (PTFE). Upon receipt, the membranes are cultured in 1 ml basal media (phenol red-free and hydrocortisone-free Dulbecco's Modified Eagle's Media (DMEM) at 37° C./5% CO2 for 24-48 hours before use. Inserts are feed for each day of recovery.
The amount of cell death was assayed by measuring the loss of lactate dehydrogenase (LDH) from the cells using a CytoTox 96 Cytotoxicity Assay Kit (Promega Corp., Madison, Wis.). A treatment of 1% Octylphenolpoly(ethyleneglycolether)x (Triton X-100™) diluted in PBS was used as a lysis control. One percent Triton X-100™ mediated cell lysis was normalized to 100%. For basal-lateral LDH levels, triplicates of 50 μl of the basal media were loaded into a 96-well assay plate. For apical LDH levels, 150 μl of Epi-Cm was added to the apical side of each chamber and mixed by pipeting. One hundred and fifty microliters was then removed and diluted 2-fold prior to performing the LDH assay. All apical LDH assay were performed in triplicate and with 50 μl of the diluted test solution. Fresh, cell-free culture medium will be used as a blank. Total LDH levels were determined by lysing cells in a final concentration of 0.9% Triton-X100™. Fifty microliters of substrate solution was added to each well and the plates incubated for 30 minutes at room temperature in the dark. Following incubation, 50 μl of stop solution was added to each well and the plates read on an optical density plate reader at […]. Cytotoxicity was expressed as a percentage calculated by subtracting the average absorbance of the PBS control wells as the endogenously released LDH level and expressing that value relative to the average Triton-X100 control, which represents total LDH content. [formula] Osmolality
For the instant application, phosphate buffered saline (PBS) served as a negative control for both the TER assay and LDH (cytotoxicity) assay. […] TER measurements and LDH levels were taken immediately after a one hour treatment of the cultured cells with each lipid, unless specified otherwrise.
TER reduction was expressed as the percent decrease in TER value from time zero to one hour post-treatment. Thus, greater percent reduction in TER represents less electrical resistance across the epithelial cell monolayer and consequently greater epithelial cell permeation. Cytotoxicity (LDH levels) for each lipid was expressed as a percent of the LDH levels measured after Triton-X100 treatment of the cells. Triton-X100™ LDH levels were normalized to 100%.

[4] = test system: human-derived tracheal/bronchial epithelial cells (EpiAirway Tissue Model); assay: Transepithelial electrical resistance (TER) of an epithelial cell monolayer; assay type: cell-based; settings: for Mean % of Original TER Value / activity at 1000 µM: lower value = greater TER reduction (Table 4); for activity at 1000 µM: Homo sapiens, Epithelial cell, 1 h, read-out: Mean % of Original TER Value
Protocol: Inserts are feed for each day of recovery. TER measurements were accomplished using the Endohm-12 Tissue Resistance Measurement Chamber connected to the EVOM Epithelial Voltohmmeter (World Precision Instruments, Sarasota, Fla.) with the electrode leads. The electrodes and a tissue culture blank insert were equilibrated for at least 20 minutes in MatTek medium with the power off prior to checking calibration. The background resistance was measured with 1.5 ml media in the Endohm tissue chamber and 300 μl media in the blank insert. The top electrode was adjusted so that it was close to, but not making contact with, the top surface of the insert membrane. Background resistance of the blank insert was about 5-20 ohms. […] TER values are a function of the surface area of the tissue. […] By this method of calculation, TER will be expressed as both Ohms*cm2 and percent original TER value. […] Several different lipid types (see Table 1) were screened to select for lipids that are capable of enhancing the permeation of a biological agent across an epithelial cell monolayer. […] A reduction in TER correlates with the ability to enhance the permeation of a molecule and biological agent across an epithelia.

[5] = lipid 1000 μM, percent decrease in TER from time zero

Row | SMILES | MTT levels (cell viability) [1] | LDH levels ([3]; human, 1 h) | Cytotoxic Effect (LDH) 1 hr. Post-treatments ([3]; human, 1 h, 1000 μM) [%] | Mean TER Reduction 1 hr. Post-treatment [4, 5] [%] | Cytotoxic Effect (LDH) 1 hr. Post-treatments ([3]; human, 1 h, 500 μM) [%] | Mean TER Reduction 1 hr. Post-treatment ([4]; lipid 500 μM) [%] | Mean % FD3 Permeation ([2]; lipid 1000 μM) [%] | Mean % Relative Cytotoxic Effect (LDH) ([3]; human, 1 h, 1000 μM) [%] | activity at 1000 µM ([4]; lipid 1000 μM) [%] | also measured
1 | CCCCCCCCCCCCCCCC(=O)OC[C@H](COP(=O)([O-])OCC[N+](C)(C)C)OC(=O)CCCCCCCC=O [16:0-09:0(ALDO)PC, 1-Palmitoyl-2-(9′-oxo-Nonanoyl)-sn-Glycero-3-Phosphocholine] | MTT levels comparable to that of the PBS negative control | below 30% | 10 | 81 | – | – | – | – | – | % FITC-Dextran Permeation FD3 ([2]; lipid 1000 μM (Table 5)): 0%
2 | CCCCCCCCCCCCCCCC(=O)OC[C@H](COP(=O)([O-])OCC[N+](C)(C)C)OC(=O)CCCCCCCC(=O)O [16:0-09:0(COOH)PC, 1-Palmitoyl-2-Azelaoyl-sn-Glycero-3-Phosphocholine] | MTT levels comparable to that of the PBS negative control | below 30% | – | – | 9 | 92 | – | – | – | % FITC-Dextran Permeation FD3 ([2]; lipid 500 μM (Table 5)): 3%
3 | CCCCCCCCCCCCC/C=C/[C@@H](O)[C@@H](N)CO[C@@H]1O[C@H](CO)[C@@H](O[C@@H]2O[C@H](CO)[C@H](O)[C@H](O)[C@H]2O)[C@H](O)[C@H]1O [Lactosyl(β) Sphingosine, D-Lactosyl-β1-1′-D-erythro-Sphingosine] | – | – | – | 95 | – | – | – | – | – | % FITC-Dextran Permeation FD10 ([2]; lipid 1000 μM): 5%; % FITC-Dextran Permeation FD40 ([2]; lipid 1000 μM): 2%; % FITC-Dextran Permeation FD3 ([2]; lipid 1000 μM (Table 5)): 8%; Cytotoxic Effect (LDH) 1 hr. Post-treatments ([3]; lipid 1000 μM, percent of Triton-X100 LDH levels): 14%
4 | CC/C=C\C/C=C\C/C=C\C/C=C\C/C=C\C/C=C\CCC(=O)O[C@H](COCCCCCCCCCCCCCCCC)COP(=O)([O-])OCC[N+](C)(C)C [C16-22:6 PC, 1-O-Hexadecyl-2-Docosahexaenoyl-sn-Glycero-3-Phosphocholine] | – | – | – | – | – | – | 0 | – | – | Mean % Relative Cytotoxic Effect (LDH) ([3]; lipid 1000 μM (Table 4)): −1%; Mean % of Original TER Value ([4]; lipid 1000 μM): 97%
5 | CCCCCCCC/C=C\CCCCCCCC(=O)O[C@H](COCCCCCCCCCCCCCCCC)COP(=O)([O-])OCC[N+](C)(C)C [C16-18:1 PC, 1-O-Hexadecyl-2-Oleoyl-sn-Glycero-3-Phosphocholine] | – | – | – | – | – | – | 0 | −2 | 86 | –
6 | CC/C=C\C/C=C\C/C=C\C/C=C\C/C=C\CCCC(=O)O[C@H](COCCCCCCCCCCCCCCCC)COP(=O)([O-])OCC[N+](C)(C)C [C16-20:5 PC, 1-O-Hexadecyl-2-Eicosapentaenoyl-sn-Glycero-3-Phosphocholine] | – | – | – | – | – | – | 0 | – | – | Mean % Relative Cytotoxic Effect (LDH) ([3]; lipid 1000 μM (Table 4)): −1%; Mean % of Original TER Value ([4]; lipid 1000 μM): 90%
7 | CCCCC/C=C\C/C=C\C/C=C\C/C=C\CCCC(=O)O[C@H](COCCCCCCCCCCCCCCCC)COP(=O)([O-])OCC[N+](C)(C)C [C16-20:4 PC, 1-O-Hexadecyl-2-Arachidonoyl-sn-Glycero-3-Phosphocholine] | – | – | – | – | – | – | 0 | 0 | 96 | –
8 | CCCCCCCCCCCCCCCCCCOC[C@H](COP(=O)([O-])OCC[N+](C)(C)C)OC [18:0-1:0 Diether PC, 1-O-Octadecyl-2-O-Methyl-sn-Glycero-3-Phosphocholine] | MTT levels comparable to that of the PBS negative control | – | 50 | 99 | 26 | 89 | 0 | −1 | 111 | % FITC-Dextran Permeation FD3 ([2]; lipid 500 μM (Table 5)): 5%
9 | CCCCCCCCCCCCCCCCOC[C@H](COP(=O)([O-])OCC[N+](C)(C)C)OC(=O)CCCCCCCC(=O)O [Azelaoyl PAF (C16-09:0), 1-O-Hexadecyl-2-Azelaoyl-sn-Glycero-3-Phosphocholine] | MTT levels comparable to that of the PBS negative control | below 30% | 26 | 95 | 16 | 93 | 9 | 3 | -5 | % FITC-Dextran Permeation FD3 ([2]; lipid 250 μM (Table 5)): 1%; permeation of FD3 relative to negative controls ([2]; text summary of Table 4): enhanced the permeation of FD3 above that of the negative controls; Cytotoxic Effect (LDH) 1 hr. Post-treatments ([3]; human, 1 h, 62.5 μM): 2%; Cytotoxic Effect (LDH) 1 hr. Post-treatments ([3]; human, 1 h, 125 μM): 5%; Cytotoxic Effect (LDH) 1 hr. Post-treatments ([3]; human, 1 h, 250 μM): 10%; Mean TER Reduction 1 hr. Post-treatment ([4]; lipid 62.5 μM): 41%; Mean TER Reduction 1 hr. Post-treatment ([4]; lipid 125 μM): 76%; Mean TER Reduction 1 hr. Post-treatment ([4]; lipid 250 μM): 93%
